Columns and labels:
Assay in all cases: relative viability (nuclei count vs DMSO), 5 days (fraction); higher = more cells survive
Alisertib + Navitoclax = compound: COc1cc(Nc2ncc3c(n2)-c2ccc(Cl)cc2C(c2c(F)cccc2OC)=NC3)ccc1C(=O)O [Alisertib] + CC1(C)CCC(c2ccc(Cl)cc2)=C(CN2CCN(c3ccc(C(=O)NS(=O)(=O)c4ccc(N[C@H](CCN5CCOCC5)CSc5ccccc5)c(S(=O)(=O)C(F)(F)F)c4)cc3)CC2)C1 [Navitoclax] (partner 0.5 µM)
How it was run: (§1)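 One day after seeding in 1536-well plates, lung cancer cell lines were dosed by pin tool. Dosing was either single-drug or a fixed anchor-drug dose plus five library-drug doses (not always all listed) in √10 steps. After 5 days, nuclei were stained in one fix-and-stain step and counted on 4× images, and relative viability is the nuclei count of treated wells over that of vehicle wells, given as the median of duplicate plates.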

Alisertib + Dasatinib = compound: COc1cc(Nc2ncc3c(n2)-c2ccc(Cl)cc2C(c2c(F)cccc2OC)=NC3)ccc1C(=O)O [Alisertib] + Cc1nc(Nc2ncc(C(=O)Nc3c(C)cccc3Cl)s2)cc(N2CCN(CCO)CC2)n1 [Dasatinib] (partner 0.075 µM)
How it was run: as §1

Alisertib + Bortezomib = compound: COc1cc(Nc2ncc3c(n2)-c2ccc(Cl)cc2C(c2c(F)cccc2OC)=NC3)ccc1C(=O)O [Alisertib] + CC(C)C[C@H](NC(=O)[C@H](Cc1ccccc1)NC(=O)c1cnccn1)B(O)O [Bortezomib] (partner 0.002 µM)
How it was run: as §1

Alisertib + Luminespib = compound: COc1cc(Nc2ncc3c(n2)-c2ccc(Cl)cc2C(c2c(F)cccc2OC)=NC3)ccc1C(=O)O [Alisertib] + CCNC(=O)c1noc(-c2cc(C(C)C)c(O)cc2O)c1-c1ccc(CN2CCOCC2)cc1 [Luminespib] (partner 0.01 µM)
How it was run: as §1

Cell Line	relative viability (Alisertib + Navitoclax; first compound 0.005 µM)	relative viability (Alisertib + Navitoclax; first compound 0.01581 µM)	relative viability (Alisertib + Navitoclax; first compound 0.05 µM)	relative viability (Alisertib + Navitoclax; first compound 0.1581 µM)	relative viability (Alisertib + Navitoclax; first compound 0.5 µM)	relative viability (Alisertib + Dasatinib; first compound 0.005 µM)	relative viability (Alisertib + Dasatinib; first compound 0.01581 µM)	relative viability (Alisertib + Dasatinib; first compound 0.05 µM)	relative viability (Alisertib + Dasatinib; first compound 0.1581 µM)	relative viability (Alisertib + Dasatinib; first compound 0.5 µM)	relative viability (Alisertib + Bortezomib; first compound 0.005 µM)	relative viability (Alisertib + Bortezomib; first compound 0.01581 µM)	relative viability (Alisertib + Bortezomib; first compound 0.05 µM)	relative viability (Alisertib + Bortezomib; first compound 0.1581 µM)	relative viability (Alisertib + Bortezomib; first compound 0.5 µM)	relative viability (Alisertib + Luminespib; first compound 0.005 µM)	relative viability (Alisertib + Luminespib; first compound 0.01581 µM)	relative viability (Alisertib + Luminespib; first compound 0.05 µM)	relative viability (Alisertib + Luminespib; first compound 0.1581 µM)	relative viability (Alisertib + Luminespib; first compound 0.5 µM)
HCC-15	0.657	0.517	0.27	0.12	0.103	0.45	0.332	0.232	0.104	0.102	0.941	0.901	0.48	0.164	0.118	0.327	0.371	0.167	0.108	0.128
HCC-827	1.01	1	0.545	0.324	0.249	0.279	0.409	0.246	0.194	0.236	1.01	1.06	0.848	0.402	0.401	0.48	0.598	0.204	0.209	0.234
HOP-62	0.966	0.919	0.214	0.139	0.0669	0.537	0.688	0.433	0.185	0.154	0.459	0.703	0.82	0.195	0.117	0.845	0.808	0.288	0.259	0.153
LC-2-ad	0.328	0.159	0.0861	0.114	0.0846	0.315	0.33	0.263	0.202	0.133	0.907	0.369	0.264	0.144	0.112	0.892	0.435	0.39	0.392	0.32
LCLC-97TM1	0.523	0.353	0.121	0.116	0.115	0.773	0.712	0.709	0.192	0.173	0.51	0.725	0.108	0.0791	0.0549	0.787	0.601	0.318	0.177	0.12
LOU-NH91	0.79	0.731	0.551	0.326	0.271	0.526	0.624	0.477	0.351	0.296	0.509	0.427	0.388	0.364	0.405	0.334	0.311	0.297	0.293	0.291
LU99A	0.846	0.634	0.206	0.211	0.123	0.502	0.513	0.323	0.183	0.17	1.15	0.872	0.396	0.24	0.182	0.245	0.3	0.219	0.201	0.177
LXF-289	0.847	0.586	0.191	0.173	0.137	0.206	0.256	0.0522	0.0513	0.0398	0.823	0.608	0.323	0.108	0.128	0.455	0.325	0.16	0.0792	0.142
NCI-H23	0.677	0.562	0.334	0.175	0.143	0.67	0.661	0.301	0.173	0.198	0.875	0.39	0.272	0.158	0.164	0.219	0.236	0.204	0.224	0.214
NCI-H322M	1.16	1.3	1.13	0.576	0.35	0.233	0.23	0.26	0.184	0.206	1.15	1.11	1.25	0.471	0.46	0.84	0.671	0.475	0.37	0.452
NCI-H441	0.925	0.365	0.106	0.158	0.132	0.621	0.332	0.186	0.165	0.176	0.715	0.394	0.184	0.17	0.155	0.369	0.364	0.223	0.218	0.242
NCI-H460	1.13	0.815	0.471	0.0264	0.0172	0.455	0.485	0.198	0.036	0.0218	1.07	0.9	0.428	0.0287	0.0157	0.0403	0.0274	0.0247	0.0194	0.0287
NCI-H520	1.19	0.66	0.386	0.272	0.251	0.218	0.199	0.148	0.177	0.159	0.463	0.377	0.199	0.173	0.186	0.237	0.202	0.197	0.209	0.193
NCI-H596	–	0.906	1.07	0.808	0.199	0.593	0.688	0.626	0.53	0.342	–	0.862	1.83	0.854	0.43	0.839	0.977	1.05	0.505	0.412
NCI-H647	1.05	1.06	0.293	0.169	0.0658	0.186	0.16	0.104	0.0476	0.0381	0.598	0.572	0.305	0.133	0.086	0.151	0.132	0.0794	0.0983	0.0961
NCI-H727	0.389	0.477	0.183	0.166	0.152	0.425	0.357	0.397	0.243	0.242	0.796	0.795	0.46	0.329	0.301	0.366	0.325	0.557	0.24	0.169
NCI-H838	1.12	1.1	0.667	0.306	0.169	0.289	0.298	0.263	0.239	0.189	0.774	0.655	0.422	0.25	0.158	0.386	0.343	0.252	0.135	0.133
NCI-H1355	0.884	0.923	0.633	0.205	0.16	0.691	0.702	0.664	0.177	0.184	1.18	1.22	0.993	0.368	0.206	0.67	0.37	0.221	0.183	0.217
NCI-H1437	1.02	0.892	0.498	0.282	0.144	0.35	0.403	0.314	0.17	0.0967	0.489	0.457	0.191	0.191	0.114	1.01	0.919	0.707	0.462	0.237
NCI-H1650	0.967	0.613	0.286	0.145	0.131	0.325	0.298	0.164	0.138	0.125	0.175	0.21	0.174	0.182	0.199	0.19	0.194	0.171	0.196	0.177
NCI-H1651	1.01	0.832	0.517	0.14	0.2	0.357	0.293	0.204	0.151	0.163	0.87	0.928	0.526	0.339	0.194	0.81	0.782	0.306	0.263	0.169
NCI-H1666	0.94	0.779	0.435	0.281	0.291	0.693	0.695	0.527	0.336	0.323	0.694	0.597	0.505	0.317	0.267	0.879	0.801	0.639	0.471	0.379
NCI-H1734	0.851	0.782	0.366	0.164	0.0931	0.449	0.358	0.291	0.181	0.151	0.775	0.621	0.383	0.227	0.175	0.172	0.214	0.149	0.146	0.132
NCI-H1755	0.928	0.99	0.682	0.356	0.181	0.382	0.467	0.356	0.221	0.0862	0.891	0.886	0.877	0.389	0.318	0.463	0.409	0.255	0.189	0.199
NCI-H1792	0.608	0.6	0.494	0.096	0.0626	0.727	0.732	0.413	0.252	0.162	0.935	0.871	0.555	0.21	0.0867	0.481	0.533	0.225	0.195	0.17
NCI-H1915	0.686	0.577	0.275	0.235	0.13	0.297	0.299	0.295	0.148	0.14	0.763	0.811	0.607	0.327	0.237	0.684	0.452	0.151	0.148	0.185

From the supplement of paper PMC10307832
